Source: ChEMBL document CHEMBL1155881, “Structure-based development of novel adenylyl cyclase inhibitors” (J Med Chem, 2008)
Activity calls are given as the source filed them. No cut-off for these calls is given here.

How the values were obtained:
[1] = biological target: Adenylate cyclase type 2 (Homo sapiens) (UniProt Q08462); assay: Stimulation of basal activity of adenylyl cyclase 2 expressed in HEK293 cells at 100 uM in presence of forskolin; type: cell-based
[2] = biological target: Adenylate cyclase (Homo sapiens) (UniProt Q8NFM4+O60503+Q08828+P40145+O60266+O95622+O43306+Q08462+P51828); assay: Inhibition of forskolin-stimulated human transmembrane adenylyl cyclase activity in HEK293 cells at 100 uM; type: cell-based
[3] = biological target: T1, Adenylate cyclase type 9 (Homo sapiens) (UniProt O60503); assay: Inhibition of basal activity of adenylyl cyclase 9 expressed in HEK293 cells at 100 uM; type: cell-based
T1 sequence (whole entry): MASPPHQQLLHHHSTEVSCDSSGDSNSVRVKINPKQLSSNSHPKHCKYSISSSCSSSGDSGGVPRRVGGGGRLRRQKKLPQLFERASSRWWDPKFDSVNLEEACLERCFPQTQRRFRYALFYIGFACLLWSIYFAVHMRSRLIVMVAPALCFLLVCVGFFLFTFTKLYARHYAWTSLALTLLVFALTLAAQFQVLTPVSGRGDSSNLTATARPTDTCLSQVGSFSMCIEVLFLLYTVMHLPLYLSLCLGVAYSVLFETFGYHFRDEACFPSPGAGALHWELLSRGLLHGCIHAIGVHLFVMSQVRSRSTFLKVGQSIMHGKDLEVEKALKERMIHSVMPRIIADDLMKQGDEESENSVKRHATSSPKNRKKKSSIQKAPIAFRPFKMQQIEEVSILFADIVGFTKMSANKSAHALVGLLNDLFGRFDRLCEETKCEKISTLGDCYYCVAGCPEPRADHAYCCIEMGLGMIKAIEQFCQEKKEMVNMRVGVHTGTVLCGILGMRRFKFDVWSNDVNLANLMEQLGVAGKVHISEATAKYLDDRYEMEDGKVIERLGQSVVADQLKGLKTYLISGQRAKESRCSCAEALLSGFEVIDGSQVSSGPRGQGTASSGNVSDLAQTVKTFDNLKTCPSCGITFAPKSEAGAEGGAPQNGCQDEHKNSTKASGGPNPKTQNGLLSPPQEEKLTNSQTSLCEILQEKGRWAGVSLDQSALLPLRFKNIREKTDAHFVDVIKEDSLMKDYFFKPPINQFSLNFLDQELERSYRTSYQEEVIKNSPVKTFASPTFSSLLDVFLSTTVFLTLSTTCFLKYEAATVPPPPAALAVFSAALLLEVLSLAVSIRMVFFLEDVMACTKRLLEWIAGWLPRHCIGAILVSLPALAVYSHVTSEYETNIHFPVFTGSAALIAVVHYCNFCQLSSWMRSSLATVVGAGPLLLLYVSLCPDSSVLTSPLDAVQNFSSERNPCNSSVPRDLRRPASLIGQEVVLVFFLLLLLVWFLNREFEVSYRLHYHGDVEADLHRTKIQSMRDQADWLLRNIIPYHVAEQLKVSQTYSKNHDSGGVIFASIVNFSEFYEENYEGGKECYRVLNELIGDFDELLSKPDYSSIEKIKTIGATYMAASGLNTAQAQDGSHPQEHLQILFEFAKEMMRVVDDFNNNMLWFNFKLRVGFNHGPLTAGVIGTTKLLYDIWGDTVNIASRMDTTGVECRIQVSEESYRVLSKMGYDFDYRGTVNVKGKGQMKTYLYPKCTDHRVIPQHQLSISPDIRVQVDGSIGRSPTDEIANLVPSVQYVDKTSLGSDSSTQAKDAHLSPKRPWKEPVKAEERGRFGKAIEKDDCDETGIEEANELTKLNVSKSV

[4] = biological target: Adenylate cyclase type 2 (Homo sapiens) (UniProt Q08462); assay: Inhibition of basal activity of adenylyl cyclase 2 expressed in HEK293 cells at 100 uM; type: cell-based
[5] = biological target: Adenylate cyclase type 1 (Homo sapiens) (UniProt Q08828); assay: Inhibition of forskolin-stimulated adenylyl cyclase 1 activity expressed in HEK293 cells at 100 uM; type: cell-based
Chain of Adenylate cyclase type 1 (Homo sapiens) (Q08828 whole entry, looked up): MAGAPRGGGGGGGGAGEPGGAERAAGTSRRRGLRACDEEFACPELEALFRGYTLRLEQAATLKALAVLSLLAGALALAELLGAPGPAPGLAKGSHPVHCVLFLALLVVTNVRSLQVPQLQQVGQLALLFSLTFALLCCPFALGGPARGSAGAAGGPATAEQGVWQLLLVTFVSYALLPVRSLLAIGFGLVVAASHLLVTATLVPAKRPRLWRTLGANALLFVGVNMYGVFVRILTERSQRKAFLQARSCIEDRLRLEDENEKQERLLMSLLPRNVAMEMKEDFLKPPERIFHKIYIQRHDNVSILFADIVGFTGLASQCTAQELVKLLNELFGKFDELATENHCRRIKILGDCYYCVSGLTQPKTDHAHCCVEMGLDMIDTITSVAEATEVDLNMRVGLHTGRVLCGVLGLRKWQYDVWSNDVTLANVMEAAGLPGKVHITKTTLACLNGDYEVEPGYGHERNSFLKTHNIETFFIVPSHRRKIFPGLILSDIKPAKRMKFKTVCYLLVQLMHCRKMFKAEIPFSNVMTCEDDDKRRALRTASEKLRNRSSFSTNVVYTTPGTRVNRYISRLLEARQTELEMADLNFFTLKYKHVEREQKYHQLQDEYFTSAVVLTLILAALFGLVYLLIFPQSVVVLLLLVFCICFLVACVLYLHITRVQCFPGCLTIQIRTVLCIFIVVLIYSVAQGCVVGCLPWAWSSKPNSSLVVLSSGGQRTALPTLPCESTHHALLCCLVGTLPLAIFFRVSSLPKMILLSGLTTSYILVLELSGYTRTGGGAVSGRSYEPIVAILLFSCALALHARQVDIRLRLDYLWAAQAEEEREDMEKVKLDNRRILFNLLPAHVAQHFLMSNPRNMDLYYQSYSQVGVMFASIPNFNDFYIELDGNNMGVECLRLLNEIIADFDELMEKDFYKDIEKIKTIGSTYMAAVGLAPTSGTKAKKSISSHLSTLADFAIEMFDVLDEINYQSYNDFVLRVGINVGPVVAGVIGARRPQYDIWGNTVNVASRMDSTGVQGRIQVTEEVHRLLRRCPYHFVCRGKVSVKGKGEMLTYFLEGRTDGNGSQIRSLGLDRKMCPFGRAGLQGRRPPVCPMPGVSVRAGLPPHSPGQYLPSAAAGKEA

[6] = biological target: Adenylate cyclase type 10 (Homo sapiens, UniProt Q96PN6); assay: Inhibition of human recombinant soluble adenylyl cyclase
Chain of Adenylate cyclase type 10 (Q96PN6 whole entry): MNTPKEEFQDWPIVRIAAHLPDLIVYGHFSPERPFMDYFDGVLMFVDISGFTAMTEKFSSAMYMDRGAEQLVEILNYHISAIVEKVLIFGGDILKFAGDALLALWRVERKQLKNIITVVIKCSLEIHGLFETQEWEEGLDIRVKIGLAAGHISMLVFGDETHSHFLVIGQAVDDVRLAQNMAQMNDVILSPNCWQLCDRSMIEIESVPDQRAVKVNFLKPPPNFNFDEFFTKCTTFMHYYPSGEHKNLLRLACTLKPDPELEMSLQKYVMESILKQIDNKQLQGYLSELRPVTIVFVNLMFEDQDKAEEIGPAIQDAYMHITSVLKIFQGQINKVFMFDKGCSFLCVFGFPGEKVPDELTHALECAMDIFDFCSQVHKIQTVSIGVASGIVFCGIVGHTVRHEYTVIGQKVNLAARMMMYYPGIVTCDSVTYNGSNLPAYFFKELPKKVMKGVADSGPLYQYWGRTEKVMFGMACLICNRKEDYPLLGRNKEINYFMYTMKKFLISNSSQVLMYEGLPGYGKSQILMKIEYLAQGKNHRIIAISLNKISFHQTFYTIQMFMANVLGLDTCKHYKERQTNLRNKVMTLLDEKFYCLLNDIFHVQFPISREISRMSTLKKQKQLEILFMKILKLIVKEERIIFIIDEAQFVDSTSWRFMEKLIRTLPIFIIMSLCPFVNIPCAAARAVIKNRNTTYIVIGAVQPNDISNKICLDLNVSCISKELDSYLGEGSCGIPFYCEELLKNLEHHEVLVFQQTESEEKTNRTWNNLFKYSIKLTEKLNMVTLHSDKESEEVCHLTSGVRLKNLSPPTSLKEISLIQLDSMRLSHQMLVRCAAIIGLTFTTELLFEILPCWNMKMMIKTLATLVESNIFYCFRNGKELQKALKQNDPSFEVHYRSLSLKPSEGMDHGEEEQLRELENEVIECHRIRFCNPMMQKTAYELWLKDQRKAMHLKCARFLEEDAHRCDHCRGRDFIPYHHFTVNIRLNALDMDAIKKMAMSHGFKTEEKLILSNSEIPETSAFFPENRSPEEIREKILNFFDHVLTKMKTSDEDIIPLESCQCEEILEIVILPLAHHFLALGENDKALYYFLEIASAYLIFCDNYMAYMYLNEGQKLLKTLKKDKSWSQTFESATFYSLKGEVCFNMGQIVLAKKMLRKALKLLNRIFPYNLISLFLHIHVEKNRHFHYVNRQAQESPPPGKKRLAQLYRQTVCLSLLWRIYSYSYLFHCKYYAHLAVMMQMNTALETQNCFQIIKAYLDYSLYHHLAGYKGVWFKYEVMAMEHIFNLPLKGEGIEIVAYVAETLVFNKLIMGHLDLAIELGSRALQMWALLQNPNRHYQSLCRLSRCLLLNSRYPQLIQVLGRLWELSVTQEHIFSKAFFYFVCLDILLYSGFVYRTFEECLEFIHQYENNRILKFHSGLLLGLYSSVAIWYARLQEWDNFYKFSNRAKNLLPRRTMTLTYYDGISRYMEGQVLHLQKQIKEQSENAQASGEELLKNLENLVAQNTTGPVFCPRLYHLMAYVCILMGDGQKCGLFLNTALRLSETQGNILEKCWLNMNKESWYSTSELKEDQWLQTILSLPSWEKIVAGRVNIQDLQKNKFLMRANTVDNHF

[7] = biological target: Adenylate cyclase type 5 (Homo sapiens) (UniProt O95622); assay: Inhibition of forskolin-stimulated adenylyl cyclase 5 activity expressed in HEK293 cells at 100 uM; type: cell-based
Chain of Adenylate cyclase type 5 (Homo sapiens) (O95622 whole entry, looked up): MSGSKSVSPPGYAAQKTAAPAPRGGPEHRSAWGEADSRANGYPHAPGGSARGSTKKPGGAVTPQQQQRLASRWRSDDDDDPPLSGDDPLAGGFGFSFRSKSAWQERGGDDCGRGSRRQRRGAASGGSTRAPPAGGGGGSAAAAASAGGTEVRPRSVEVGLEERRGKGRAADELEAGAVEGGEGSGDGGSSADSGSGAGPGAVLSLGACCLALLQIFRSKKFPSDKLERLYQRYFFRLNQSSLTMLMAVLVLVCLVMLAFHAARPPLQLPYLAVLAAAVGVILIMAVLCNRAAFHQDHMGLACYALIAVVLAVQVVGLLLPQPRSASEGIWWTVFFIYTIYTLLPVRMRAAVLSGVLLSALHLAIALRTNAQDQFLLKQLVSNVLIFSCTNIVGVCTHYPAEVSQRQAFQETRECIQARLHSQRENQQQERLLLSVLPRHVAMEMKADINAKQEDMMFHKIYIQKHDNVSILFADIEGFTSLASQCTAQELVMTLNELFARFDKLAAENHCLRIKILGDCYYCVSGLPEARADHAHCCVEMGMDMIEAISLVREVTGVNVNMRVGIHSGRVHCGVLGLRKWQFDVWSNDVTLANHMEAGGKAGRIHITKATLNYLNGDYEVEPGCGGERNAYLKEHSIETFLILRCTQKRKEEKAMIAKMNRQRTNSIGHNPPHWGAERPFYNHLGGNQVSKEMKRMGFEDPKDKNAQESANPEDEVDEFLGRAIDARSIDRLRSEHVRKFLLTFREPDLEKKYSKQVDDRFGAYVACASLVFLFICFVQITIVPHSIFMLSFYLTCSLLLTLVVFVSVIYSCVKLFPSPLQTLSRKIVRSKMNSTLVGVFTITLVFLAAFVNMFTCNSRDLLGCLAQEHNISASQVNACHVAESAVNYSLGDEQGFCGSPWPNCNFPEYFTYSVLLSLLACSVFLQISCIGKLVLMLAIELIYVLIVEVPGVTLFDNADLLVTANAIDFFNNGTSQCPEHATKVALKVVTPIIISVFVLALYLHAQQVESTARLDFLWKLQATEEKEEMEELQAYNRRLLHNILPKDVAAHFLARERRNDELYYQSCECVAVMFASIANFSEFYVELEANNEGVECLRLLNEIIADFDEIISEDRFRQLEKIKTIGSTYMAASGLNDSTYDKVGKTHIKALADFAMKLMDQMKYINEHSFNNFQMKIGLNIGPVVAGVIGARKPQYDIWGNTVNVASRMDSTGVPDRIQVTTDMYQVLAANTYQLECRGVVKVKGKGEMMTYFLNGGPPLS

Adenylate cyclase = biological target: T2, Adenylate cyclase (Arthrospira platensis, UniProt O32393); assay: Inhibition of Spirulina platensis adenylyl cyclase assessed as cAMP level by cAMP immunogenic assay; set-up: species or system Limnospira platensis
T2 sequence (O32393 whole entry): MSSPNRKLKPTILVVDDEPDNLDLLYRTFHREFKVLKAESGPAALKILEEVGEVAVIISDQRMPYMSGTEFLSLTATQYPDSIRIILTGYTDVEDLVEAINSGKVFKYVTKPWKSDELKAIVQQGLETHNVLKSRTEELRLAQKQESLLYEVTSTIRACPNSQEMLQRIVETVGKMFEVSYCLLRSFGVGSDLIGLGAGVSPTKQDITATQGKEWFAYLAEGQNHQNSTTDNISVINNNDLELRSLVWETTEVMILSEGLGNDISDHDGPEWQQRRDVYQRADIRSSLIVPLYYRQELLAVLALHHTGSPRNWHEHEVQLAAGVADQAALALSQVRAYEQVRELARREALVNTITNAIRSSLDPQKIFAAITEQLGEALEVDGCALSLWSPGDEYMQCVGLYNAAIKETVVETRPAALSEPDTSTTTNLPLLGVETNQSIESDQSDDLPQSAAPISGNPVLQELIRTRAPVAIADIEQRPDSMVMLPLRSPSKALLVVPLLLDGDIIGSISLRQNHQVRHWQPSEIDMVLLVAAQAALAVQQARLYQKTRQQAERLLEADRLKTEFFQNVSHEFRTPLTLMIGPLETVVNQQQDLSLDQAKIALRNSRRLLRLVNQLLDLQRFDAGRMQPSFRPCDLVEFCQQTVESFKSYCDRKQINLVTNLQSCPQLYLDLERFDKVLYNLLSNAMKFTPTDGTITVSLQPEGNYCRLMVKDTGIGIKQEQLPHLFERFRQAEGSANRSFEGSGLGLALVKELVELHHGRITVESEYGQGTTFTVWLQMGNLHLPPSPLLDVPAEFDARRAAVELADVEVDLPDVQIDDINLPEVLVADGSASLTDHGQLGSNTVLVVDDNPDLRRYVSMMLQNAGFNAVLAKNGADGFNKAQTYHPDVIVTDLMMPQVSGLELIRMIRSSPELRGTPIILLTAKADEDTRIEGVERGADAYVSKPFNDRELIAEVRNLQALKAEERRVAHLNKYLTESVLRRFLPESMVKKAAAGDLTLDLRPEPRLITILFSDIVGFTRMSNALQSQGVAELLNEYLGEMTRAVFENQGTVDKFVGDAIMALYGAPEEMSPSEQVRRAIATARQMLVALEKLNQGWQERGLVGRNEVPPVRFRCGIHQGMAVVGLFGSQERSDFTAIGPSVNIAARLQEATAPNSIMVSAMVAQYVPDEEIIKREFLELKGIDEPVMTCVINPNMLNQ

Chain of Adenylate cyclase type 2 (Homo sapiens) (Q08462 whole entry): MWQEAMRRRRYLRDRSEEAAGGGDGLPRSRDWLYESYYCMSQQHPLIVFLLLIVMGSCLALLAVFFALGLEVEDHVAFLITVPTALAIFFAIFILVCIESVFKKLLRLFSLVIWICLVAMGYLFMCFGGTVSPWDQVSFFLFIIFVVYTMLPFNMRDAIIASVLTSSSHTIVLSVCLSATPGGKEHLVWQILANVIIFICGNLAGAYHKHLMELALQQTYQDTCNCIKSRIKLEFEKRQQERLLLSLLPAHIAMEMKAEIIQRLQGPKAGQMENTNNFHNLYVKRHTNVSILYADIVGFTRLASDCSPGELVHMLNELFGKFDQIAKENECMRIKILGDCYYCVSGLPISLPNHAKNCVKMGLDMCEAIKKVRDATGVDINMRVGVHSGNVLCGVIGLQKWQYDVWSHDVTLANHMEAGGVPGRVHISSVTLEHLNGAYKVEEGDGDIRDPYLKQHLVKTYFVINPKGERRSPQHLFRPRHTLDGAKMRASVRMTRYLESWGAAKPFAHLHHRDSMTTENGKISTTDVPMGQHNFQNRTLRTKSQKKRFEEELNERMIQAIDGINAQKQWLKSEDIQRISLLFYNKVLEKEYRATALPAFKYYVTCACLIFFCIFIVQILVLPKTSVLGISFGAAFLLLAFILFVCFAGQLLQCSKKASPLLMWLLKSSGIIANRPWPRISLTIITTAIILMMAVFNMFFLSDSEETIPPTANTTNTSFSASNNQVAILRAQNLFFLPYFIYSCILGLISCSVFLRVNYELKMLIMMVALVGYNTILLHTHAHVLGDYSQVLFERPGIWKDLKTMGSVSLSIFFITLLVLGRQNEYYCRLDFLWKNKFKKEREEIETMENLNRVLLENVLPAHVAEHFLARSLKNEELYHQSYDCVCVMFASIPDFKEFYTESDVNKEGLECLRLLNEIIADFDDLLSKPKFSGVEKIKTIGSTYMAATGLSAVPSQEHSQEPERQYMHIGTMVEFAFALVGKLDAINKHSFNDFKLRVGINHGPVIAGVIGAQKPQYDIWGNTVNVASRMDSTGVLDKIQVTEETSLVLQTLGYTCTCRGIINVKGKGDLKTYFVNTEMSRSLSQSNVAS

Row | IC50 (Adenylate cyclase) [µM] | SMILES | Activity [1] | Activity [2] | Activity [3] | Activity [4] | Activity [5] | IC50 [6] [µM] | Activity [7]
1 | – | O=C(O)c1cc2c(cc1S(=O)(=O)O)C1C(C3C2C2(Cl)C(Cl)=C(Cl)C3(Cl)C2(Cl)Cl)C2(Cl)C(Cl)=C(Cl)C1(Cl)C2(Cl)Cl (stereo unspecified) | Active | Active | Active | Active | Active | 11 | Active
2 | 200 | BrC(c1cccc2ccccc12)c1cccc2ccccc12 | – | – | – | – | – | – | –
3 | 100 | C[C@H]1[C@H](C)CC[C@]2(C(=O)O)CC[C@]3(C)C(=CC[C@@H]4[C@@]5(C)C[C@@H](O)[C@H](O)[C@@](C)(CO)[C@@H]5[C@H](O)C[C@]43C)[C@H]12 [MADECASSIC ACID] | – | – | – | – | – | – | –
4 | – | C[C@]12CC[C@@H]3c4cc(O)c(O)cc4CC[C@H]3[C@@H]1CC[C@@H]2O | – | – | – | – | – | 3 | –
5 | – | C[C@]12CC[C@H]3[C@@H](CCC4=CC(=O)CC[C@@]43C)[C@@H]1CC[C@@H]2C(=O)COS(=O)(=O)c1ccc(Br)cc1 | – | inactive | inactive | inactive | inactive | 1.1 | inactive
